Test results reported in patent US7915282B2, “C2-phenyl-substituted cyclic keto-enols used as pesticides and herbicides” (Bayer Aktiengesellschaft, priority 2000, dated 2011).

How the values were obtained:
Assay type in all cases: in vivo
[1] = system: Cotton; test: Post-emergence test; settings: after three weeks
Protocol: (§1) [table] To produce a suitable preparation of active compound, 1 part by weight of active compound is mixed with the stated amount of solvent, the stated amount of emulsifier is added and the concentrate is diluted with water to the desired concentration. Test plants of a height of 5-15 cm are sprayed with the preparation of active compound such that the particular amounts of active compound desired are applied per unit area. The concentration of the spray liquor is chosen such that the particular amount of active compound desired is applied in 1000 l of water/ha. After three weeks, the degree of damage to the plants is rated in % damage in comparison to the development of the untreated control. The figures denote: [table]

[2] = system: Lolium; test: Post-emergence test; settings: after three weeks
Protocol: as §1

[3] = system: Setaria; test: Post-emergence test; settings: after three weeks
Protocol: as §1

[4] = system: Soya bean; test: Post-emergence test; settings: 125 g ai/ha, after three weeks
Protocol: as §1

[5] = system: Digitaria; test: Post-emergence test; settings: after three weeks
Protocol: as §1

[6] = system: Sorghum; test: Post-emergence test; settings: after three weeks
Protocol: as §1

[7] = system: Echinochloa; test: Post-emergence test; settings: after three weeks
Protocol: as §1

[8] = system: Sugar beet; test: Post-emergence test; settings: after three weeks
Protocol: as §1

[9] = system: Avena fatua; test: Pre-emergence test; settings: after three weeks
Protocol: (§2) [table] To produce a suitable preparation of active compound, 1 part by weight of active compound is mixed with the stated amount of solvent, the stated amount emulsifier is added and the concentrate is diluted with water to the desired concentration. Seeds of the test plants are sown in normal soil. After about 24 hours, the soil is sprayed with the preparation of active compound such that the particular amounts of active compound desired are applied per unit area. The concentration of the spray liquor is chosen such that the particular amounts of active compound desired are applied in 1000 l of water/ha. After three weeks, the degree of damage to the plants is rated in % damage in comparison to the development of the untreated controls. The figures denote: [table]

[10] = system: Bromus; test: Pre-emergence test; settings: after three weeks
Protocol: as §2

[11] = system: Lolium; test: Pre-emergence test; settings: after three weeks
Protocol: as §2

[12] = system: Setaria; test: Pre-emergence test; settings: after three weeks
Protocol: as §2

[13] = system: Soya bean; test: Pre-emergence test; settings: after three weeks
Protocol: as §2

[14] = system: Sugar beet; test: Pre-emergence test; settings: after three weeks
Protocol: as §2

[15] = system: Wheat; test: Pre-emergence test; settings: 60 g ai/ha, after three weeks
Protocol: as §2

[16] = system: Maize; test: Pre-emergence test; settings: after three weeks
Protocol: as §2

[17] = system: Alopecurus; test: Pre-emergence test; settings: after three weeks
Protocol: as §2

[18] = system: caterpillars of the owlet moth (Plutella xylostella); test: Plutella test; settings: active compound concentration of 1000 ppm; after 7 days; cabbage leaves dipped
Protocol: (§3) [table] To produce a suitable preparation of active compound, 1 part by weight of active compound is mixed with the stated amounts of solvent and emulsifier, and the concentrate is diluted with emulsifier-containing water to the desired concentration. Cabbage leaves (Brassica oleracea) are treated by being dipped into the preparation of active compound of the desired concentration and are populated with caterpillars of the owlet moth (Plutella xylostella) while the leaves are still moist. After the desired period of time, the kill in % is determined. 100% means that all caterpillars have been killed; 0% means that none of the caterpillars have been killed.

[19] = system: green rice leaf hopper (Nephotettix cincticeps); test: Nephotettix test; settings: active compound concentration of 1000 ppm; after 6 days; rice seedlings dipped
Protocol: [table] To produce a suitable preparation of active compound, 1 part by weight of active compound is mixed with the stated amounts of solvent and emulsifier, and the concentrate is diluted with emulsifier-containing, water to the desired concentration. Rice seedlings (Oryza sativa) are treated by being dipped into the preparation of active compound of the desired concentrated and are populated with the green rice leaf hopper (Nephotettix cincticeps) while the leaves are still moist. After the desired period of time, the kill in % is determined. 100% means that all leaf hoppers have been killed; 0% means that none of the leaf hoppers have been killed.

[20] = system: larvae of the mustard beetle (Phaedon cochleariae); test: Phaedon larvae test; settings: active compound concentration of 1000 ppm; after 7 days; cabbage leaves dipped
Protocol: as §3, with “with larvae” for “with caterpillars”, “the mustard beetle (Phaedon cochleariae)” for “the owlet moth (Plutella xylostella)”, “all beetle larvae” for “all caterpillars”, “the beetle larvae” for “the caterpillars”

[21] = system: Galium; test: Post-emergence test; settings: 125 g ai/ha, after three weeks
Protocol: as §1

[22] = system: Digitaria; test: Pre-emergence test; settings: 125 g ai/ha, after three weeks
Protocol: as §2

[23] = system: Echinochloa; test: Pre-emergence test; settings: after three weeks
Protocol: as §2

[24] = system: greenhouse red spider mite (Tetranychus urticae); test: Tetranychus test (OP-resistant/dip treatment); settings: active compound concentration of 1000 ppm; after 7 days; infested bean plants dipped
Protocol: [table] To produce a suitable preparation of active compound, 1 part by weight of active compound is mixed with the stated amounts of solvent and emulsifier, and the concentrate is diluted with emulsifier-containing water to the desired concentration. Bean plants (Phaseolus vulgaris) which are heavily infested by all stages of the greenhouse red spider mite (Tetranychus urticae) are dipped into a preparation of active compound of the desired concentration. After the desired period of time, the effect in % is determined. 100% means that all spider mites have been killed; 0% means that none of the spider mites have been killed.

[25] = system: Avena fatua; test: Post-emergence test; settings: after three weeks
Protocol: as §1

[26] = system: Alopecurus; test: Post-emergence test; settings: after three weeks
Protocol: as §1

[27] = system: Veronica; test: Pre-emergence test; settings: 125 g ai/ha, after three weeks
Protocol: as §2

[28] = system: Wheat; test: Post-emergence test; settings: after three weeks
Protocol: as §1

[29] = system: white fly Bemisia tabaci; test: Bemisia test; settings: active compound concentration of 1000 ppm; after 10 days; infested cotton plants dipped
Protocol: [table] To produce a suitable preparation of active compound, 1 part by weight of active compound is mixed with the stated amounts of solvent and emulsifier, and the concentrate is diluted with emulsifier-containing water to the desired concentrations. Cotton plants (Gossypium hirsutum) which are infested by eggs, larvae and pupae of the white fly Bemisia tabaci are dipped into a preparation of active compound of the desired concentration. After the desired period of time, the kill in % is determined. 100% means that all animals have been killed; 0% means that none of the animals have been killed.

[30] = system: peach aphids (Myzus persicae); test: Myzus test; settings: active compound concentration of 1000 ppm; after 6 days; infested cabbage leaves dipped
Protocol: as §3, with “oleracea) which are heavily infested by the peach aphids (Myzus persicae)” for “oleracea)”, “concentration.” for “concentration and are populated with caterpillars of the owlet moth (Plutella xylostella) while the leaves are still moist.”, “aphids” for “caterpillars”

C=Cc1cc(C)c(C2=C(OC(=O)C(C)CC)C3(CCC(OC)CC3)OC2=O)cc1C (centres unmarked) [Example I-2-b-12]
% damage Cotton ([1]; 125 g ai/ha): 0%
% damage Lolium ([2]; 125 g ai/ha): 90%
% damage Setaria ([3]; 125 g ai/ha): 95%
% damage Soya bean [4]: 0%
% damage Digitaria ([5]; 125 g ai/ha): 95%

CCc1cc(C)cc(C)c1C1=C(O)C(C)(C)NC1=O [Example I-1-a-8]
% damage Sorghum ([6]; 60 g ai/ha): 95%
% damage Cotton ([1]; 60 g ai/ha): 0%
% damage Setaria ([3]; 60 g ai/ha): 100%
% damage Digitaria ([5]; 60 g ai/ha): 95%
% damage Echinochloa ([7]; 60 g ai/ha): 100%
% damage Sugar beet ([8]; 60 g ai/ha): 10%
% damage Avena fatua ([9]; 60 g ai/ha): 90%
% damage Bromus ([10]; 60 g ai/ha): 100%
% damage Lolium ([11]; 60 g ai/ha): 100%
% damage Setaria ([12]; 60 g ai/ha): 100%
% damage Soya bean ([13]; 60 g ai/ha): 0%
% damage Sugar beet ([14]; 60 g ai/ha): 0%
% damage Wheat [15]: 0%
% damage Maize ([16]; 60 g ai/ha): 10%
% damage Alopecurus ([17]; 60 g ai/ha): 100%
kill in % [18]: 100%
kill in % [19]: 100%

CCc1cc(C)c(C2=C(O)C3(CCC(OC)CC3)NC2=O)c(CC)c1 (centres unmarked) [Example I-1-a-3]
kill in % [20]: 100%
% damage Lolium ([2]; 125 g ai/ha): 70%
% damage Setaria ([3]; 125 g ai/ha): 90%
% damage Digitaria ([5]; 125 g ai/ha): 80%
% damage Galium [21]: 80%
% damage Avena fatua ([9]; 125 g ai/ha): 95%
% damage Lolium ([11]; 125 g ai/ha): 100%
% damage Setaria ([12]; 125 g ai/ha): 100%
% damage Digitaria [22]: 100%
% damage Echinochloa ([23]; 125 g ai/ha): 100%
% damage Alopecurus ([17]; 125 g ai/ha): 100%
kill in % [24]: 100%
kill in % [19]: 100%

CCc1cc(C)cc(C)c1C1=C(O)C2(CCC(C)CC2)NC1=O (centres unmarked) [Example I-1-a-9]
% damage Avena fatua ([25]; 15 g ai/ha): 95%
% damage Cotton ([1]; 15 g ai/ha): 0%
% damage Setaria ([3]; 15 g ai/ha): 100%
% damage Digitaria ([5]; 15 g ai/ha): 95%
% damage Sugar beet ([8]; 15 g ai/ha): 10%
% damage Alopecurus ([26]; 15 g ai/ha): 100%
% damage Veronica [27]: 90%
% damage Lolium ([11]; 125 g ai/ha): 100%
% damage Setaria ([12]; 125 g ai/ha): 100%
% damage Soya bean ([13]; 125 g ai/ha): 0%
% damage Digitaria [22]: 100%
% damage Sugar beet ([14]; 125 g ai/ha): 0%
% damage Alopecurus ([17]; 125 g ai/ha): 100%
kill in % [19]: 100%

C=Cc1cc(C)c(C)cc1C1=C(OC(=O)C(C)C)C2(CCC(OC)CC2)OC1=O (centres unmarked) [Example I-2-b-13]
% damage Cotton ([1]; 125 g ai/ha): 0%
% damage Lolium ([2]; 125 g ai/ha): 70%
% damage Setaria ([3]; 125 g ai/ha): 95%
% damage Soya bean [4]: 0%
% damage Digitaria ([5]; 125 g ai/ha): 80%
% damage Wheat ([28]; 125 g ai/ha): 10%

CCc1cc(C)c(C2=C(O)C(C)(C)NC2=O)c(CC)c1 [Example I-1-a-1]
kill in % [19]: 100%

C=Cc1cc(C)c(C2=C(OC(=O)C(C)(C)C)C3(CCCCC3)OC2=O)c(C)c1 [Example I-2-b-2]
kill in % [24]: 100%

CCc1cc(C)cc(C)c1C1=C(OC(=O)C(C)(C)C)C2(CCCCC2)OC1=O [Example I-2-b-9]
kill in % [29]: 100%
kill in % [19]: 100%

C=Cc1cc(C)cc(C)c1C1=C(OC(=O)C(C)(C)C)C2(CCC(OC)CC2)OC1=O (centres unmarked) [Example I-2-b-8]
kill in % [20]: 100%
kill in % [24]: 100%

CCc1cc(C)cc(C)c1C1=C(O)C2(CCC(OC)CC2)OC1=O (centres unmarked) [Example I-2-a-4]
kill in % [30]: 100%
kill in % [29]: 100%
% damage Sorghum ([6]; 60 g ai/ha): 80%
% damage Avena fatua ([25]; 60 g ai/ha): 80%
% damage Cotton ([1]; 60 g ai/ha): 0%
% damage Lolium ([2]; 60 g ai/ha): 95%
% damage Wheat ([28]; 60 g ai/ha): 0%
% damage Alopecurus ([26]; 60 g ai/ha): 95%
% damage Avena fatua ([9]; 125 g ai/ha): 80%
% damage Bromus ([10]; 125 g ai/ha): 70%
% damage Lolium ([11]; 125 g ai/ha): 100%
% damage Setaria ([12]; 125 g ai/ha): 100%
% damage Soya bean ([13]; 125 g ai/ha): 0%
% damage Sugar beet ([14]; 125 g ai/ha): 0%
% damage Maize ([16]; 125 g ai/ha): 5%
% damage Alopecurus ([17]; 125 g ai/ha): 100%
kill in % [24]: 100%
kill in % [19]: 100%

CCc1cc(CC)c(C2=C(OC(=O)C(C)CC)C3(CCC(OC)CC3)OC2=O)c(CC)c1 (centres unmarked) [Example I-2-b-11]
kill in % [24]: 100%

C=Cc1cc(C)c(C2=C(OC(=O)C(C)(C)C)C3(CCC(C)CC3)OC2=O)c(C)c1 (centres unmarked) [Example I-2-b-6]
kill in % [30]: 100%
kill in % [20]: 100%

C=Cc1cc(C)c(C2=C(OC(=O)C(C)(C)C)C3(CCC(OC)CC3)OC2=O)c(C)c1 (centres unmarked) [Example I-2-b-5]
kill in % [30]: 100%

CCc1cc(C)cc(C)c1-c1c(O)c(C)c(-c2ccc(F)cc2)oc1=O [Example I-4-a-1]
kill in % [30]: 100%
kill in % [20]: 100%
% damage Sorghum ([6]; 125 g ai/ha): 90%
% damage Cotton ([1]; 125 g ai/ha): 0%
% damage Setaria ([3]; 125 g ai/ha): 95%
% damage Digitaria ([5]; 125 g ai/ha): 100%
% damage Echinochloa ([7]; 125 g ai/ha): 90%
% damage Sugar beet ([8]; 125 g ai/ha): 0%
% damage Wheat ([28]; 125 g ai/ha): 20%
% damage Veronica [27]: 95%
% damage Lolium ([11]; 125 g ai/ha): 100%
% damage Setaria ([12]; 125 g ai/ha): 100%
% damage Soya bean ([13]; 125 g ai/ha): 0%
% damage Digitaria [22]: 100%
% damage Sugar beet ([14]; 125 g ai/ha): 0%
% damage Alopecurus ([17]; 125 g ai/ha): 100%
kill in % [18]: 100%
kill in % [24]: 100%
kill in % [19]: 100%

CCc1cc(CC)c(C2=C(O)C3(CCC(OC)CC3)NC2=O)c(CC)c1 (centres unmarked) [Example I-1-a-6]
kill in % [30]: 100%
% damage Sorghum ([6]; 125 g ai/ha): 100%
% damage Lolium ([2]; 125 g ai/ha): 80%
% damage Setaria ([3]; 125 g ai/ha): 95%
% damage Digitaria ([5]; 125 g ai/ha): 95%
% damage Avena fatua ([9]; 60 g ai/ha): 80%
% damage Echinochloa ([23]; 60 g ai/ha): 90%
% damage Alopecurus ([17]; 60 g ai/ha): 90%
